Legend:
participants with SSc-RP [1] = assay: Frequency of weekly RP attacks, all attacks (patient diary; primary endpoint); type: in vivo, human; details: for Weekly RP Attacks (All Attacks), Max / Weekly RP Attacks (All Attacks), Min / Weekly RP Attacks (All Attacks), Q1 / Weekly RP Attacks (All Attacks), Q3: last 7 days of dosing period
Procedure: (§1) Part A—Double-blind, Placebo-controlled, Parallel-group, Dose selection, will assess the safety and efficacy of two doses of cilnidipine (10 mg and 20 mg), alone and in combination with tadalafil. A total of 36 participants will be randomized to one of six pre-specified treatment arms. See Example 3 for data obtained in this phase of the study thus far, on 11 participants.
(§2) Please refer to FIG. 1 for treatment arms in Part A of the study. Dosing lasted or will last for 12 (±2) days in which participants self-administered or will self-administer daily doses of assigned treatment in the morning. Each participant took or will take one capsule and one tablet to blind the active therapy being received.
(§3) The relevant metrics measured by this tool daily are: • Study medication • SSc-RP symptoms (Reporting an attack including duration of attack) • Severity of the attack considering all symptoms of the attack e.g. tingling, numbness, pain, color changes (VAS 0-10 cm scale) • Participant's location at the time of the attack (inside home/outside home) • Selecting symptoms experienced during the attack (tingling, numbness, pain, color changes, other) • Pain rating during the attack (11-point Likert scale) • The RCS based on how much difficulty participants had with Raynaud's today, how many attacks the participant had, and how long they lasted. Participants will also be asked to consider how much pain, numbness, or other symptoms the Raynaud's caused in fingers (including painful sores), and how much the Raynaud's alone affected the use of hands today (VAS 0-10 cm scale).
(§4) Percent change from baseline evaluation for frequency of weekly RP attacks were or will be used as the primary efficacy variable. The sponsor-developed participant-informed diary will be used to record data. Frequency of weekly RP attacks is defined as the total number of RP attacks divided by the number of days with available diary data within the last 7 days of each dosing period then multiplied by 7. Total number of RP attacks during the last 7 days of screening period divided by the number of days with available data then multiplied by 7 will be used as baseline for the analysis of all periods.
(§5) Percentage change={(weekly RP attacks for the last 7 days of each dosing period−Baseline weekly RP attacks)/Baseline weekly RP attacks}*100%.
(§6) Absolute change=weekly RP attacks for the last 7 days of each dosing period−Baseline weekly RP attacks
(§7) Percent change from baseline evaluation for frequency of weekly RP attacks was and will be the primary efficacy endpoint. Frequency of weekly RP attacks is defined as the total number of RP attacks divided by the number of days with available diary data within the last 7 days of each dosing period then multiplied by 7. Total number of RP attacks during the last 7 days of screening period divided by the number of days with available data then multiplied by 7 will be used as baseline for the analysis of all periods.
(§8) The following data was actually obtained in accordance with the protocol and plan delineated in Examples 1 and 2. The accompanying data involved 11 patients out of the planned 76 patient study. The study was done in patients with scleroderma (systemic sclerosis) who had relatively frequent Raynaud symptoms as they needed to average at least one attack per day during a screening period of up to two weeks. In this first phase of this double-blind placebo-controlled, prospective randomized study, patients were treated in parallel and after meeting study criteria were randomized to receive either placebo, cilnidipine 10 mg daily, cilnidipine 20 mg daily, tadalafil 5 mg daily, cilnidipine 10 mg plus 5 mg of tadalafil, or cilnidipine 20 mg plus 5 mg of tadalafil.
Results: Patients in the study were administered the Scleroderma Health Assessment Questionnaire (SHAQ) at the time of study entry and during clinic visits following the treatment period. […]

participants with SSc-RP [2] = assay: Frequency of weekly symptomatic RP attacks (patient diary), Phase 2a Part A; type: in vivo, human; details: for Weekly Symptomatic RP Attacks, Max / Weekly Symptomatic RP Attacks, Mean (SD) / Weekly Symptomatic RP Attacks, Min / Weekly Symptomatic RP Attacks, Q1 / Weekly Symptomatic RP Attacks, Q3: last 7 days of dosing period
Procedure: as §1, §2, §3, §4, §5, §6, §7, §8

[3] = Table A-5, ITT Part A, listed as Cilnidipine 10 mg
[4] = Table A-5, ITT Part A, listed as Cilnidipine 20 mg
[5] = Table A-5, ITT Part A, listed as Pooled Cilnidipine
[6] = Table A-5, ITT Part A, last 7 days of dosing vs last 7 days of screening
[7] = Table A-5, ITT Part A, last 7 days of dosing vs last 7 days of screening, listed as Cilnidipine 10 mg
[8] = Table A-5, ITT Part A, last 7 days of dosing vs last 7 days of screening, listed as Cilnidipine 20 mg
[9] = Table A-1, ITT Part A, listed as Cilnidipine 10 mg
[10] = Table A-1, ITT Part A, listed as Cilnidipine 20 mg
[11] = Table A-1, ITT Part A, listed as Pooled Cilnidipine
[12] = Table A-1, ITT Part A, last 7 days of dosing vs last 7 days of screening, listed as Cilnidipine 10 mg
[13] = Table A-1, ITT Part A, last 7 days of dosing vs last 7 days of screening, listed as Cilnidipine 20 mg

## COCCOC(=O)C1=C(C)NC(C)=C(C(=O)OC/C=C/c2ccccc2)C1c1cccc([N+](=O)[O-])c1 (stereo not shown) [Cilnidipine, 1,4-dihydro-2,6-dimethyl,4-(3-nitrophenyl)-3,5-pyridinedicarboxylic acid 2-methoxyethyl (2 E)-3-phenyl-2-propenyl ester]
Participants with SSc-RP [1]; 20 mg dose group
  Efficacy Seen: overall response: shows best overall
Participants with SSc-RP [1]; Example 4, Part A, both doses (10 and 20 mg)
  effect on Raynaud's endpoints (DSMB review): effective at reducing Raynaud's endpoints
Participants with SSc-RP [1]; Pooled Cilnidipine 20 mg and Cilnidipine 20 mg + Tadalafil 5 mg, excluding outliers, baseline RCS subgroup not named, upper half of table, ITT Part A
  Weekly RP Attacks (All Attacks) Percent Change from Baseline, Median: −45.00%
Participants with SSc-RP [1]; Pooled Cilnidipine, excluding outliers, baseline RCS subgroup not named, upper half of table, ITT Part A
  Weekly RP Attacks (All Attacks), Median: 11.00
Participants with SSc-RP [1]; [3]
  Weekly RP Attacks (All Attacks), Max: 23.0
  Weekly RP Attacks (All Attacks), Min: 23.0,
  Weekly RP Attacks (All Attacks), Q1: 23.00,
  Weekly RP Attacks (All Attacks), Q3: 23.00
Participants with SSc-RP [1]; [4]
  Weekly RP Attacks (All Attacks), Max: 11.0
  Weekly RP Attacks (All Attacks), Min: 5.0,
  Weekly RP Attacks (All Attacks), Q1: 5.00,
  Weekly RP Attacks (All Attacks), Q3: 11.00
Participants with SSc-RP [1]; [5]
  Weekly RP Attacks (All Attacks), Max: 23.0
  Weekly RP Attacks (All Attacks), Min: 5.0,
  Weekly RP Attacks (All Attacks), Q1: 5.00,
  Weekly RP Attacks (All Attacks), Q3: 23.00
Participants with SSc-RP [1]; [6]
  Weekly RP Attacks (All Attacks) Change from Baseline, Min: −9.0,
  Weekly RP Attacks (All Attacks) Change from Baseline, Q1: −9.00,
Participants with SSc-RP [1]; [7]
  Weekly RP Attacks (All Attacks) Change from Baseline, Max: −9.0
  Weekly RP Attacks (All Attacks) Change from Baseline, Q3: −9.00
Participants with SSc-RP [1]; [8]
  Weekly RP Attacks (All Attacks) Change from Baseline, Max: −4.3
  Weekly RP Attacks (All Attacks) Percent Change from Baseline, Max: −45.0%
  Weekly RP Attacks (All Attacks) Percent Change from Baseline, Q3: −45.00%
Participants with SSc-RP [1]; Table A-5, ITT Part A, last 7 days of dosing vs last 7 days of screening, listed as Pooled Cilnidipine
  Weekly RP Attacks (All Attacks) Change from Baseline, Max: −4.3
Participants with SSc-RP [2]; Example 3, first 11 patients of Part A, vs baseline
  weekly frequency of Raynaud attacks, direction of change: decrease
Participants with SSc-RP [2]; [9]
  Weekly Symptomatic RP Attacks, Max: 14.0, 14.0
  Weekly Symptomatic RP Attacks, Mean (SD): 14.00
  Weekly Symptomatic RP Attacks, Min: 14.0, 14.0
  Weekly Symptomatic RP Attacks, Q1: 14.00, 14.00
  Weekly Symptomatic RP Attacks, Q3: 14.00, 14.00
Participants with SSc-RP [2]; [10]
  Weekly Symptomatic RP Attacks, Max: 11.0
  Weekly Symptomatic RP Attacks, Mean (SD): 8.00 (4.243)
  Weekly Symptomatic RP Attacks, Min: 5.0
  Weekly Symptomatic RP Attacks, Q1: 5.00
  Weekly Symptomatic RP Attacks, Q3: 11.00
Participants with SSc-RP [2]; [11]
  Weekly Symptomatic RP Attacks, Max: 14.0
  Weekly Symptomatic RP Attacks, Mean (SD): 10.00 (4.583)
  Weekly Symptomatic RP Attacks, Min: 5.0
  Weekly Symptomatic RP Attacks, Q1: 5.00
  Weekly Symptomatic RP Attacks, Q3: 14.00
Participants with SSc-RP [2]; Table A-1, ITT Part A, last 7 days of dosing vs last 7 days of screening
  Weekly Symptomatic RP Attacks Percent Change from Baseline, Min: −33.3, −33.3%
Participants with SSc-RP [2]; [12]
  Weekly Symptomatic RP Attacks Change from Baseline, Max: −7.0, −7.0
  Weekly Symptomatic RP Attacks Change from Baseline, Mean (SD): −7.00
  Weekly Symptomatic RP Attacks Change from Baseline, Min: −7.0, −7.0
  Weekly Symptomatic RP Attacks Change from Baseline, Q1: −7.00, −7.00
  Weekly Symptomatic RP Attacks Change from Baseline, Q3: −7.00, −7.00
  Weekly Symptomatic RP Attacks Percent Change from Baseline, Max: −33.3, −33.3%
Participants with SSc-RP [2]; [13]
  Weekly Symptomatic RP Attacks Change from Baseline, Max: −2.0
  Weekly Symptomatic RP Attacks Change from Baseline, Mean (SD): −4.50 (3.536)
  Weekly Symptomatic RP Attacks Change from Baseline, Min: −7.0
  Weekly Symptomatic RP Attacks Change from Baseline, Q1: −7.00
  Weekly Symptomatic RP Attacks Change from Baseline, Q3: −2.00
